Results taken from patent US8183292B2, “Chiral cyclic β-amino acids and their derivatives, pharmaceutical compositions containing them and the use of such compounds” (BioBlocks Magyarorszag Gyogyszerkemiai es Fejleszto Kft., priority 2006, dated 2012).
Blank lines part the entries; values can stand above or below the compound they belong to.

Experiments:
[1] = tested on: MRC-5 human fibroblast cell lines; experiment: Cytotoxicity on MRC-5 human fibroblast cell lines (Alamar Blue/resazurine, 24 h); assay type: cell-based; details: MRC-5 cells, 24 hours incubation, 1% DMSO
Protocol: The toxic effect of the compounds was measured on MRC-5 human fibroblast cell lines in accordance with the method that has been described in the article published by Molnár et al. [L. Molnár, G. M. Keserü, Á. Papp, Z. Lörincz, G. Ambrus és F. Darvas.: A neural network based classification scheme for cytotoxicity predictions: Validation on 30,000 compounds, Bioorg. Med. Chem. Lett. 16(4), 1037-9 (2006)]. The cells were incubated for a cell cycle (24 hours) with solutions of various concentrations prepared from the compounds, in the presence of 1% of DMSO. 3 parallel measurements were carried out with 6 different concentrations. The ratio of the viable cells was determined by reducing the Alamaar Blue (resazurine) reagent that was followed fluorimetrically. The measured materials were not toxic on the given cell line in a concentration of 128 μmol after incubation for one day.
In the following Table 1 the cytotoxicity of some compounds according to the invention is given.

P-glycoprotein = experiment: Reversal of multidrug resistance: rhodamine 123 accumulation in human mdr1 transfected L5178 mouse T-cell lymphoma cells (flow cytometry); assay type: cell-based; details: for Vrel = effect related to Verapamil: Verapamil at 10 μg/ml; for R = ratio of fluorescence and activity / R (activity ratio, fluorescence): rhodamine 123; for Multidrug resistance reversing effect (in words): 4 and 40 μg/mL, at higher concentration multiple of fluorescence activity of Verapamil
Protocol: L5178 mouse T-cell lymphoma cells were transfected with pHa MDR1/A retrovirus, by the method as described by J. L. Weaver [J. L. Weaver, G. Szabó, P. S. Pine, M. M. Gottesmann, S. Goldenberg and A. Aszalos: The effect of ion channel blockers, immunosuppressive agents and other drugs on the activity of the multidrug transporter. Int. […] Mdr-1-expressing cell lines were selected by culturing the transfected cells with 60 ng/mL of colchicine to maintain the expression of the MDR phenotype. L5178 (parent) mouse T-cell lymphoma cells and the human mdr1 transfected subline were cultured in McCoy's 5A medium supplemented with 10% by mass of heath-inactivated horce serum, L-glutamine and antibiotics. Both cell lines were cultured at 37° C. The mouse lymphoma cell line was maintained in a 5% CO2 atmosphere.
The assays were carried out by the method as described by J. Molnár et al. [J. Molnár, I. Mucsi, J. Nacsa, A. Hevér, N. Gyémánt, K. Ugocsai, P. Hegyes, S. Kiessig, D. Gaal, H. Lage and A. Varga: New silicon compounds as resistance modifiers against multidrug-resistant cells. […] The cell density was set to a value of 2×10^6/mL, then the cells were resuspended in a serum-free McCoy's 5A medium and divided in aliquots of 0.5 mL in Eppendorf centrifuge tubes. The tested compounds were added in different concentrations to different volumes (2.0-20.0 μL) of 1.0-10.0 mg/mL stock solutions and the samples were incubated for 10 minutes at room temperature. […] The fluorescence of the cell population was measured with a Beckton Dickinson FACScan flow cytometer. […] The percentage value of the mean fluorescence intensity was calculated for the treated MDR and for the parental cell lines as compared with the values obtained with the untreated cells. The activity ratio (R) was calculated on the basis of the measured fluorescence values by the following equation: […]

melting point: 110 to 111 °C
SMILES: CCOC(=O)[C@@H]1C[C@H]2C[C@@H]([C@H]1N(Cc1ccccc1)C(=S)Nc1cccc(OC)c1)C2(C)C [Compound 52, (1R,2R,3R,5R)-1-Benzyl-1-(3-Ethoxycarbonyl-6,6-Dimethylbicyclo[3.1.1]-Heptan-2-yl)-3-(3-Methoxyphenyl)-Thiourea]
Survival (%) [c = 128 μM] [1]: 113.0% | Vrel = effect related to Verapamil (P-glycoprotein; Table 3, 4 μg/ml): 1.90 | R = ratio of fluorescence and activity (P-glycoprotein; Table 3, 4 μg/ml): 21.87 | Vrel = effect related to Verapamil (P-glycoprotein; Table 3, 40 μg/ml): 2.13 | R = ratio of fluorescence and activity (P-glycoprotein; Table 3, 40 μg/ml): 24.44 | Multidrug resistance reversing effect at lower concentrations (in words) (P-glycoprotein; lower concentration (4 μg/mL), similar values at higher concentration, indicating saturation): considerable multidrug resistance reversing effect

melting point: 118 to 120 °C
SMILES: CCOC(=O)[C@@H]1C[C@H]2C[C@@H]([C@H]1NC(=S)Nc1cccc(OC)c1)C2(C)C [Compound 49, (1R,2R,3R,5R)-1-(3-Ethoxycarbonyl-6,6-Dimethylbicyclo[3.1.1]Heptan-2-yl)-3-(3-Methoxyphenyl)-Thiourea]
Survival (%) [c = 128 μM] [1]: 250.9% | Multidrug resistance reversing effect (in words) (P-glycoprotein): significant dose-dependent effect | Vrel = effect related to Verapamil (P-glycoprotein; Table 2, 4 μg/ml): 0.56 | R (activity ratio, fluorescence) (P-glycoprotein; Table 2, 4 μg/ml): 2.77 | Vrel = effect related to Verapamil (P-glycoprotein; Table 2, 40 μg/ml): 5.71 | R (activity ratio, fluorescence) (P-glycoprotein; Table 2, 40 μg/ml): 28.07

melting point: 125 to 126 °C
SMILES: CCOC(=O)[C@H]1C[C@H]2C[C@@H]([C@H]1NC(=S)NCCc1ccc(OC)c(OC)c1)C2(C)C [Compound 46, (1R,2R,3S,5R)-1-(3-Ethoxycarbonyl-6,6-Dimethylbicyclo[3.1.1]Heptan-2-yl) -3-(3,4-Dimethoxyphenylethyl)-Thiourea]
Survival (%) [c = 128 μM] [1]: 182.2% | Multidrug resistance reversing effect (in words) (P-glycoprotein): significant dose-dependent effect | Vrel = effect related to Verapamil (P-glycoprotein; Table 2, 4 μg/ml): 0.82 | R (activity ratio, fluorescence) (P-glycoprotein; Table 2, 4 μg/ml): 4.02 | Vrel = effect related to Verapamil (P-glycoprotein; Table 2, 40 μg/ml): 4.46 | R (activity ratio, fluorescence) (P-glycoprotein; Table 2, 40 μg/ml): 21.92

melting point: 132 to 135 °C
SMILES: CCOC(=O)[C@H]1C[C@H]2C[C@@H]([C@H]1NC(=S)Nc1cccc(OC)c1)C2(C)C [Compound 44, (1R,2R,3S,5R)-1-(3-Ethoxycarbonyl-6,6-Dimethylbicyclo[3.1.1]Heptan-2-yl)-3-(3-Methoxyphenyl)-Thiourea]
Survival (%) [c = 128 μM] [1]: 128.1% | Multidrug resistance reversing effect (in words) (P-glycoprotein): significant dose-dependent effect | Vrel = effect related to Verapamil (P-glycoprotein; Table 2, 4 μg/ml): 0.41 | R (activity ratio, fluorescence) (P-glycoprotein; Table 2, 4 μg/ml): 2.02 | Vrel = effect related to Verapamil (P-glycoprotein; Table 2, 40 μg/ml): 4.47 | R (activity ratio, fluorescence) (P-glycoprotein; Table 2, 40 μg/ml): 22
